Biological target: Chloramphenicol Acetyl Transferase (CAT) (Escherichia coli, UniProt P62577)
Test: Acetylation by CAT with ¹⁴C acetyl coenzyme A, TLC and autoradiography
Type: biochemical
Details: analogue 2 mM stock 80 µl, CAT enzyme 3.75 units, ¹⁴C acetyl coenzyme A 0.1 µCi, 37°C for 90 minutes; no band in no enzyme control
Description: Biotinylated chloramphenicol analogue (compound 2) was dissolved to a concentration of 2 mmolar in 50% methanol. ¹⁴C acetyl coenzyme A (50 µCi/ml, […]) was obtained commercially.
In a microcentrifuge tube were mixed Tris/HCl (1M, pH 7.8) 7.5 µl, biotinylated chloramphenicol analogue (2 mM) 80 µl, CAT enzyme 3.75 units and ¹⁴C acetyl coenzyme A 2 µl (0.1 µCi). The mix was incubated at 37°C for 90 minutes. A control reaction which contained no enzyme was performed in parallel. 20 µl of each reaction was spotted on to a cellulose TLC plate which was developed in 95/5 chloroform methanol. The TLC plate was exposed to autoradiographic film.
The lane corresponding to the reaction to which enzyme was added contains a spot which migrated under the influence of the solvent. This band is acetylated, biotinylated chloramphenicol analogue. No corresponding band is visible in the no enzyme control.

Sequence of Chloramphenicol Acetyl Transferase (CAT) (P62577 whole entry, looked up): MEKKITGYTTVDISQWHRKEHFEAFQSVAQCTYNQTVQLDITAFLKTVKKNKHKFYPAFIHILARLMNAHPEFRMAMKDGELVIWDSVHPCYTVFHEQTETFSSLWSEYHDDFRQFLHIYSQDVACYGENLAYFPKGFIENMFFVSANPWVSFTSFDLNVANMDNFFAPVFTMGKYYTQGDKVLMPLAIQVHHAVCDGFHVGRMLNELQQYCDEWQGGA

Q: For `CC(=O)N[C@H](CO)[C@H](O)c1ccc(NC(=O)CCCCCNC(=O)CCCC[C@@H]2SC[C@@H]3NC(=O)N[C@@H]32)cc1` [Compound 2, 6-biotinylamino-N[4-(N-acetyl-1-(2-amino-1,3-propandiol))phenyl]hexamide], which “substrate of CAT (acetylated product band on TLC)” value is on record?
A: is a substrate of CAT

Reference: patent EP0656422A1, “Cat assay” (priority 1993, dated 1995)
